Experimental data taken from patent publication US20150352075A1, “Treatment of Alzheimer's and Cognitive Impairment With Andrographolides” (INNOBIOSCIENCE, LLC, priority 2013, published 2015).
pIC50: −log10 of the molar value. Where two headings read alike, the source gives them in different places.

Experiments:
[1] = molecular target: T1, Immunoprecipitated GSK-3β from hippocampus of wild-type mice (Mus musculus, UniProt Q9WV60); experiment: Luminometric GSK-3β activity assay; format: biochemical
T1 construct: the hippocampus of two month-old wild-type mice were lysed in immunoprecipitation buffer; from tissue; host or cells: hippocampus of two-month-old wild-type mice (immunoprecipitated with anti-GSK-3β antibody, Santa Cruz)
Protocol: The immunoprecipitation was performed as previously described (Garrido et al, 2002). Briefly, the hippocampus of two month-old wild-type mice were lysed in immunoprecipitation buffer (25 mM HEPES pH 7.4, 125 mMNaCl, 25 mMNaF, 1 mM EDTA, 1 mM EGTA, 1% NP-40) including phosphatase inhibitors (1 mM NaVO3 and 200 nM okadaic acid) and the protease inhibitor cocktail described above. 200 μg of total proteins from lysate were precleared by using protein G-Sepharose beads (Santa Cruz Biotechnology) for 1 h at 4° C. and then were incubated with anti-GSK-3β antibody (Santa Cruz Biotechnology) and new protein G beads for 4 h at 4° C. The immunocomplexes were finally pelleted and washed three times with cold immunoprecipitation buffer.
IC50 of ANDRO was determined by a luminometric GSK-3β activity assay. […] Briefly, ANDRO was tested at different concentrations and diluted in kinase buffer containing final concentrations of: 40 mM Tris pH 7.5; 20 mM MgCl2; 0.1 mg/ml BSA. […] The enzymatic reaction was stopped after 10 min of incubation to room temperature by adding 50 μl Kinase Glo (Promega, Madison, USA). The luminometric signal was allowed to stabilize for 10 min and the measured with a Luminometer TURNER DESIGNS model TD-2020.

[2] = test system: APPswe/PS-1 double transgenic mice; experiment: Slot blot of Aβ oligomers (A11 antibody) in hippocampus of treated mice; format: in vivo
[3] = Side effects in treated animals; settings: in vivo
[4] = test system: APPswe/PS-1 double transgenic mice; experiment: LTP by TBS in hippocampal CA1 slices from treated transgenic mice; format: in vivo; settings: slices from both sets (7- and 12-month-old) of treated APPswe/PS-1 mice
[5] = test system: Wnt/β-catenin pathway in hippocampal slices; experiment: Wnt pathway mechanism in hippocampal slices (sFRP, Dkk-1, Dvl-3 mobility shift, time course); format: cell-based, mice
Protocol: Slice preparation. […] Transverse slices (250-300 μm) from the dorsal hippocampus were cut under oxygen-saturated cold artificial cerebrospinal fluid using a Vibroslice microtome (VSL, World Precision Instruments, Inc WPI, Sarasota, Fla.). After obtained, slices were incubated in ACSF for at least than one hour at room temperature, in order to stabilize activity. In every moment during dissection, slicing and experimentation slices were oxygenated with 95% oxygen-5% carbon dioxide.
Briefly, tissues were homogenized in RIPA buffer (10 mM Tris-Cl, pH 7.4, EDTA 5 mM, 1% NP-40, 1% sodium deoxycholate, and 1% SDS) supplemented with a protease inhibitor mixture (1 mM PMSF, 2 μg/mL aprotinin, 1 μg/mL pepstatin and 10 μg/mL benzamidine) and phosphatase inhibitors (25 mMNaF, 100 mM Na3VO4, 1 mM EDTA and 30 μM Na4P207) using a Potter homogenizator and then passed sequentially through different caliber syringes. […] Protein concentration was determined using the BCA Protein Assay Kit (Pierce). Samples were resolved by […] 10% SDS-PAGE and transferred to a PVDF membrane. The reactions were followed by incubation with anti-mouse, anti-goat or anti-rabbit IgG peroxidase conjugated (Pierce, Rockford, Ill.) and developed using an ECL kit (Western Lightning Plus ECL, PerkinElmer).

[6] = test system: APPswe/PS-1 double transgenic mice; experiment: Tau phosphorylation (PHF-1, AT8) by immunoblot and immunohistochemistry in treated mice; format: in vivo

T1 sequence (Q9WV60 whole entry): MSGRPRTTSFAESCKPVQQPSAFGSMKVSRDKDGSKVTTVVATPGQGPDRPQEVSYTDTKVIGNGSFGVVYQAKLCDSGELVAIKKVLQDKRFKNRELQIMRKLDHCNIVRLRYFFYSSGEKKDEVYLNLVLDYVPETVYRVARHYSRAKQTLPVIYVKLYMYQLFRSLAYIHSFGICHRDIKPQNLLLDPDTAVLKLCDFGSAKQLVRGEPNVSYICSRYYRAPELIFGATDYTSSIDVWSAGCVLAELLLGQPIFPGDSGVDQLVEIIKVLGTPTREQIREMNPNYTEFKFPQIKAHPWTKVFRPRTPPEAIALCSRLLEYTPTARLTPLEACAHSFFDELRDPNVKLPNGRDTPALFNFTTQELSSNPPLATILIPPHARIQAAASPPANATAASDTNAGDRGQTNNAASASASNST

pIC50 ([1]; 25 μM pGS-2 peptide substrate, 10 μM ATP, preincubation 10 min, read-out: inhibition constant (IC50) of GSK-3β activity): 5.25
pIC50 ([1]; different concentrations of ATP, read-out: IC50 using different concentrations of ATP): ~5.25
IC50 at increased substrate concentration ([1]; different concentrations of the substrate): increase in the IC50 of ANDRO
Compound: C=C1CC[C@@H]2C(C)(CO)C(O)CC[C@@]2(C)C1C/C=C1/C(=O)OCC1O (stereo in doubt) [ANDRO, 3-(2-(Decahydro-6-hydroxy-5-(hydroxymethyl)-5,8a-dimethyl-2-methylenenaphthyl)ethylidene)dihydro-4-hydroxyfuran-2(3H)-one]
GSK-3β inhibition in the presence of DTT ([1]; 0.5 mM DTT): neither prevents the inhibition generated by ANDRO
level of Aβ oligomers (A11 slot-blot) ([2]; 7 month-old APPswe/PS-1 mice): did not show significant changes
levels of Aβ-oligomers (A11 slot blot) ([2]; FIG. 3G mice (legend: old APPswe/PS-1)): did not show significant changes
side effects in animals [3]: seems not to cause side effects in animals
LTP induction in CA3-CA1 transmission [4]: have the property to induce a LTP that is maintained for 1 h
speed of increase in GSK3β pSer-9 and decrease in pTyr-216 ([5]; compared to Wnt-3a treatment): faster
mobility shift (phosphorylation) of Dvl-3 ([5]; hippocampal slices, 1 h, western blot): does not induce a mobility shift of Dvl-3
time at which total levels of β-catenin increased ([5]; slices from 2 month-old wild-type mice, 5 μM ANDRO, Wnt3a conditioned medium or 10 μM 6-B10): 15 min
number of AT8-positive neurons next to amyloid deposits ([6]; 6 month-old APPswe/PS-1, circular area surrounding plaques): clear decrease in the number of AT8-positive neurons next to amyloid deposits
total AT8-positive cells outside the circular area around the plaques ([6]; hippocampus): decrease in the number of these cells
PHF-1- and AT8-positive tau levels (immunoblot) ([6]; hippocampus of 6 month-old APPswe/PS-1 mice, vs untreated): reduction in PHF-1- and AT8-positive tau levels
